Results as given in US6280725A, “Compositions and methods for inhibiting the growth of fungi” (Lipton, division of Conopco, Inc., priority 2000, dated 2001).

Columns and labels:
Format in all cases: cell-based
[1] = test system: Saccharomyces cerevisiae wild type strain SU-50; test: Growth inhibition (growth curves) of wild type yeast SU-50; conditions: for effect on growth of SU50: 25 mM sugar with 25 μM MB21, 100 cells per ml, vs reference and MB21 alone, effect if any, FIG. 5a
Protocol: (§1) For examples 2, and 4-9 grow-curves were recorded at 25° C. using a microbiology growth reader (Bioscreen C, ex Labsystems). For example 3, growth curve was determined as turbidity, measured by hand at a wave length of 660 nm (OD 660).
a) Saccharomyces cerevisiae strain SU-50 was cultivated in YEPD medium, supplemented with 2% glucose.
b) Growth curves were obtained with the strain SU-50. The cells (about 10 per ml) were cultured in YEPD at 25° C. in the presence or absence of β-gentiobiose or pustulan fragments and MB-21, by using a 24 well plate at room temperature with continuous shaking on a micro-titre plate shaker (mark 4) or a microbiology growth reader (Bioscreen C).
Three YEPD media were prepared, one without MB21, the other YEPD media contained 10 μM MB21 and 20 μM MB21, respectively. To these media β-gentiobiose was added in concentrations of 0, 50, 100 and 200 mM. The yeast strain SU50 was inoculated in these media in a concentration of 10 cells per ml, and cultivated in a 24 well plate at 25° C. Samples were taken from a 24 well plate at regular time intervals, diluted sixty times with distilled water and measured at 660 nm to construct the growth curves.
This example illustrates a relationship between the length of the β-(1,6)-glucan fragments and their effectiveness in competition.
(§2) In this example, three strains are grown in various media in the fashion of example 3, with the exception of being inoculated in the media in a concentration of 100 cells per ml. The sugars used are all comparatives: laminaribiose (β-1,3)-linked D-glucose), sucrose (having a 1,2 link), and sorbitol.
In this example, strain SU 50 was grown three media (see table 2) in the fashion of example 3, with the exception of being inoculated in the media in a concentration of 100 cells per ml.

[2] = test system: Saccharomyces cerevisiae strain SU52-pUR5801; test: Cell wall protein release test (α-galactosidase-CWP2p secretion into medium); conditions: FIG. 1
Protocol: b) Saccharomyces cerevisiae strain SU52-pUR5801 was cultivated in Difco yeast nitrogen base (YNB), supplemented with 2% glucose and 0.004% histidine. After the culture had reached the late log-phase, the cells were cultivated further (a 10% inoculum) in YEPD medium, consisting of 1% Difco yeast extract, 2% Bacto-peptone, supplemented with 0.5% glucose and 5% galactose.
a) Saccharomyces cerevisiae strain SU52-pUR 5801 was grown in YNB and YEPD media, at 30° C. with shaking at 225 rpm in an orbital incubator until a OD (660 nm) between 5 and 6 was reached. In parallel experiments several concentrations of β-gentiobiose or pustulan fragments were included in the media. After cultivation, the media were separated from the cells by centrifugation (10.000×g for 15 min at 4° C.). The media were then filtered using […] filters. Secretion of α-(-galactosidase-CWP2p was assessed by measuring α-(-galactosidase enzyme activity in the media (see further on). […]
β-Gentiobiose was dissolved in YEPD media supplemented with 5% galactose, in concentrations of 10, 50 and 100 mM respectively. […] The enzyme activity of the fusion protein CWP2-α-galactosidase was measured as described in the α-galactosidase assay.

[3] = test system: Zygosaccharomyces bailii ZB (NCYC 563); test: Growth curves of strain ZB; conditions: 200 mM sugar with 6 μM MB21, 100 cells per ml, vs reference and MB21 alone; effect if any; FIG. 5b
Protocol: as §1
c) Zygosaccharomyces bailii ZB: as SU-50 above.
as §2
In this example, strain ZB was grown three media (see table 3) in the fashion of example 3, with the exception of being inoculated in the media in a concentration of 100 cells per ml.

[4] = test system: Zygosaccharomyces bailii G1; test: Growth curves / relative inhibition of strain G1; conditions: 200 mM sugar with 6 μM MB21, 100 cells per ml, vs reference and MB21 alone; effect if any; FIG. 5c
Protocol: as §1
d) Zygosaccharomyces bailii G1: as SU-50 above.
as §2
In this example, strain G1 was grown three media (see table 4) in the fashion of example 3, with the exception of being inoculated in the media in a concentration of 100 cells per ml.
In this example, strain G1 was grown in the fashion of example 3 (with the exception of being inoculated in the media in a concentration of 100 cells per ml) in the presence of 6 μM MB21 and 50 mM of a β-(1,6)-glucan. Experiments were done with short-chain β-(1,6)-glucan of variable chain length.

OC[C@H]1O[C@@H](OC[C@H]2O[C@@H](O)[C@H](O)[C@@H](O)[C@@H]2O)[C@H](O)[C@@H](O)[C@@H]1O [β-gentiobiose, 6-O-β-glucopyranosyl-β-D-glucose]
influence on the growth of SU-50 ([1]; β-gentiobiose as such (0, 50, 100, 200 mM, no MB21), 10 cells per ml, 25° C., OD 660, FIG. 3): no influence
relationship between concentration and secretion of the fusion construct ([2]; at least up to 100 mM β-gentiobiose): linear relationship
secretion (release) of the fusion protein α-galactosidase-CW2p from the cell wall ([2]; β-gentiobiose 10, 50 and 100 mM in YEPD with 5% galactose, 30° C., 18 hours): concentration dependent

OC[C@H]1O[C@@H](O[C@H]2[C@H](O)[C@@H](CO)OC(O)[C@@H]2O)[C@H](O)[C@@H](O)[C@@H]1O (stereo partly shown) [laminaribiose]
effect on growth of SU50 [1]: stimulating effect

OC[C@@H](O)[C@@H](O)[C@H](O)[C@@H](O)CO [sorbitol]
effect on growth of SU50 [1]: stimulating effect
effect on growth of ZB [3]: stimulating effect
effect on growth of G1 [4]: stimulating effect

OC[C@H]1O[C@@](CO)(O[C@H]2O[C@H](CO)[C@@H](O)[C@H](O)[C@H]2O)[C@@H](O)[C@@H]1O [sucrose]
effect on growth of SU50 [1]: stimulating effect
effect on growth of ZB [3]: stimulating effect
effect on growth of G1 [4]: stimulating effect
